Patent publication US20200123127A1, “REMOVAL OF SENESCENCE-ASSOCIATED MACROPHAGES” (EVERON BIOSCIENCES, INC., priority 2016, published 2020)
“Also recorded” adds a separate entry of the source.

Experiments:
[1] = test system: p16(Ink4a) expression in SAMs; test: p16(Ink4a) promoter-dependent luciferase activity in alginate bead-elicited macrophages (SAMs) ex vivo; format: cell-based, mouse; details: for Modulation of p16(Ink4a): SAMs: SAMs from NDF alginate beads, dose-response testing; for effect on luciferase activity (M1-inducing agents): IFN-γ 10 ng/mL, Poly(I:C) 10 μg/mL, IFN-α 100 U/mL, 72 hours
Procedure: (§1) FIG. 7. Immunomodulatory regulation of p16(Ink4a) and SAβG in macrophages. Peritoneal lavage cells elicited by alginate-encapsulated SCs from p16^Ink4a/Luc mice were treated ex vivo with immunomodulatory agents for 72 hours. A) p16 promoter-dependent luciferase activity (black bars) and […] activity (via 4-MUG hydrolysis) (gray bars) were measured following treatment with M1- and M2-polarizing stimuli: LPS at 1 ng/mL, IFN-γ at 10 ng/mL, LPS/IFN-γ co-treatment, Poly(I:C) at 10 μg/mL, IFN-α at 100 U/mL, IL-4 at 20 ng/mL, IL-13 at 10 ng/ml, and IL-4/IL-13 co-treatment. Results are shown as the mean±standard deviation for at least 3 independent experiments, with statistical significance between treated compared to non-treated samples depicted. B) Dose-dependent response of JAK1/2 inhibitor Ruxolitinib on luciferase activity in elicited macrophages in the presence (gray bars) or absence (black bars) of IL-4 (10 ng/mL) stimulation. Enzyme activities are expressed as the percent activity relative to non-treated (NT) controls per cell. Statistical significance between IL-4 stimulated and non-stimulated cells at each concentration of ruxolitinib is shown.
FIG. 8. Immunomodulatory regulation of p16(Ink4a) and SAβG in macrophages. Peritoneal lavage cells elicited by alginate-encapsulated SCs from p16^Ink4a/Luc mice were treated ex vivo with immunomodulatory agents for up to 72 hours. (A) mRNA expression of p16(Ink4a) and β-galactosidase (Glb1) in macrophages (relative to B2m expression) with or without LPS stimulation for 72 hours analyzed via qRT-PCR, normalized to non-treated controls. (B) Microphotograph of SAβG-stained adherence-selected macrophages with or without stimulation with LPS (1 ng/mL) for 72 hours (10× objective). (C&D) Kinetics of p16(Ink4a) promoter-dependent luciferase activity per cell with or without LPS stimulation (C) or IL-4 stimulation (D), normalized to activity from non-treated cells at time zero. Results are shown as the mean±standard deviation for at least 3 experiments. Statistical significance with respect to non-treated control at time zero is indicated. (E) Luciferase activity and (3-galactosidase activity (via 4-MUG hydrolysis) from proteose peptone-elicited lavage cells following stimulation with IL-4 (20 ng/mL) for 72 hours, normalized to non-treated controls. (F) Viability following 72 hour dose-response to JAK1/2 inhibitor Ruxolitinib in the presence or absence of IL-4 (10 ng/mL) stimulation, measured by CyQuant Direct DNA-based viability assay. Viability normalized to respective controls lacking Ruxolitinib. (G&H) Dose-response of STAT6 inhibitor AS1517499 against luciferase activity (G) and viability via CyQuant Direct assay (H) following 72 hour treatment in the presence and absence of IL-4 (10 ng/mL). Results normalized to respective controls (with or without IL-4) lacking STAT6 inhibitor. Statistical significance is calculated with respect to the difference between IL-4 stimulated and non-stimulated cells at each concentration of STAT6 inhibitor. (I) Relative luciferase activity per cell following repolarization with M1- and M2-inducing agents. Macrophages were left non-treated (NT) or treated with either LPS (1 ng/ml) or IL-4 (20 ng/ml) for 72 hours (days 1-3), as indicated. For each treatment set, samples were collected at 72 hours (no further treatment; days 4-6=x). Alternatively, cells were washed and placed in fresh medium (−), medium containing LPS (1 ng/mL) and IFN-γ (10 ng/mL), or medium containing IL-4 (20 ng/mL) and IL-13 (10 ng/mL) and incubated for an additional 72 hours prior to sample collection (as indicated for days 4-6). Luciferase activity is expressed as the percent activity per cell relative to non-treated (NT) controls after the first 72 hours.
Luciferase activity of cell lysates was accessed using Bright-Glo™ Luciferase Assay System (Promega; Madison, Wis.) according to manufacturer's instructions with minor modifications. […]

[2] = test system: β-galactosidase in SAMs; test: β-galactosidase activity (4-MUG hydrolysis) in alginate bead-elicited macrophages (SAMs) ex vivo; format: cell-based, mouse; details: for β-galactosidase production by SAM cells (MUG assay): concentrations of 2.5 to 10 μM; for effect on β-gal activity (polarizing agents): 72 hours, IFN-γ 10 ng/mL, Poly(I:C) 10 μg/mL, IFN-α 100 U/mL, IL-4 20 ng/mL, IL-13 10 ng/ml
Procedure: as §1
FIG. 13. Effect of TA-4812 on β-gal expression and cell viability. Asenins TA-04812-1, was assayed for its effects on SAM viability, proliferation, and β-gal expression. SAM viability was determined using the resazurin cell viability assay (Res). Cell proliferation was assessed using the CyQuant assay (CyQUANT® Direct Cell proliferation Assay, ThermoFisher Scientific, Waltham, Mass., Catalog # C35011, performed according to manufacturer's instructions) (CyQ). β-gal production was assessed using the MUG assay, a quantitative assay to determine the level of β-gal expression using 4-methylumbelliferylgalactopyranoside (MUG) as substrate.
A fluorogenic substrate for β-galactosidase, 4-MUG (4-Methylumbelliferyl β-D-Galactopyranoside; Sigma-Aldrich), was used for the quantitation of enzymatic β-gal activity from cell lysates, assayed under β-gal^pH6 conditions (i.e. pH 6.0). In a 96-well white microplate, 5 μl of diluted cell lysate was combined with 45 μl of fluorogenic β-gal^pH6 reaction buffer: 1 mM 4-MUG in 100 mM citric acid/sodium phosphate buffer, pH 6.0, containing 2 mM MgCl2, 150 mM NaCl and 0.02% NP-40. Kinetics of product formation at room temperature was determined by measuring fluorescence (Ex/Em 360 nm/440 nm) of the reaction mixture at regular intervals over a 2-hour time period. Reaction endpoints were determined by addition of 150 μl of 700 mM sodium carbonate. The rate of reaction (RFU/min) for each sample was determined, and normalized per μg of protein.
To determine whether macrophage polarization regulates p16(Ink4a) and SAβG expression, peritoneal lavage from p16^Ink4a/Luc mice elicited by our alginate bead model were stimulated with M1- and M2-inducing agents and subsequently, luciferase activity (driven by endogenous p16(Ink4a) promoter) and β-galactosidase activity (assayed via 4-MUG hydrolysis) were measured (FIG. 7A). […] Consistently, LPS decreased the intensity of SAβG staining in treated macrophages. The response of macrophages to LPS was rapid, with a significant decrease in luciferase activity observed within 8 hours (˜40% decrease).
We investigated whether the mechanisms regulating the expression of these traits in macrophages were similar to those found in SCs. Using cells isolated from p16^Ink4a/Luc mice, the dose-dependent response of luciferase and β-galactosidase activities to immunomodulatory stimuli in macrophages was compared to that of proliferating and irradiation-induced senescent adipose-derived mesenchymal stromal cells. […] LPS stimulation of alginate bead model-elicited macrophages reduced luciferase activity, with maximal inhibition (˜85%) observed at concentrations ≥1 ng/mL (FIG. 10A). In addition, β-galactosidase activity was reduced by 40% at 10 ng/mL (FIG. 10B). […]

| Molecule | Modulation of p16(Ink4a): SAMs [1] | effect on luciferase activity (M1-inducing agents) [1] | effect on β-gal activity (polarizing agents) [2] | other results |
| --- | --- | --- | --- | --- |
| COc1ccc(C2CC(=NO)c3c(SCc4ccccc4)sc(C(=O)NCc4cccc(F)c4)c3C2)cc1 (stereo not shown) [Example A1.6, 3-(Benzylthio)-N-(3-fluorobenzyl)-4-(hydroxyimino)-6-(4-methoxyphenyl)-4,5,6,7-tetrahydrobenzo[c]thiophene-1-carboxamide] | decrease | – | – | β-galactosidase production by SAM cells (MUG assay) ([2]; listed as TA-4812): reduce β-galactosidase production; β-galactosidase production by SAM cells (MUG assay) ([2]; listed as TA-04812-1): reducing β-gal expression |
| O=C(NCCCc1cn[nH]c1)c1ccc(-c2ccncc2)c(C#Cc2ccc(F)cc2)c1 [OT-82] | decrease | – | – | expression of p16 (luciferase) in SAMs ([1]; OT-82, 500 nM): selectively decrease; also recorded: significantly downregulates; β-galactosidase expression/activity in SAMs ([2]; OT-82, 500 nM): no effect; also recorded: little effect |
| Poly(I:C) | decrease | decreased luciferase activity | without affecting β-gal activity | luciferase activity, dose-response ([1]; 72 hr, selective to macrophages): dose-dependent decrease; β-galactosidase activity, dose-response ([2]; Poly(I:C), 72 hr): no effect |
| IFN-γ: type II interferon, M1-inducing agent (protein, UniProt P01579 24-161, looked up) Interferon gamma: QDPYVKEAENLKKYFNAGHSDVADNGTLFLGILKNWKEESDRKIMQSQIVSFYFKLFKNFKDDQSIQKSVETIKEDMNVKFFNSNKKKRDDFEKLTNYSVTDLNVQRKAIHELIQVMAELSPAAKTGKRKRSQMLFRG | – | decreased luciferase activity | without affecting β-gal activity | – |

Now from value to molecule, other results behind:

| Modulation of p16(Ink4a): SAMs [1] | effect on luciferase activity (M1-inducing agents) [1] | effect on β-gal activity (polarizing agents) [2] | Molecule | other results |
| --- | --- | --- | --- | --- |
| – | decreased luciferase activity | without affecting β-gal activity | IFN-α | – |
| increase | – | without modulating β-gal activity | IL-4: M2-polarizing cytokine | – |
| increase | – | without modulating β-gal activity | IL-13: M2-polarizing cytokine | – |
